# Reference: patent publication US20090227600A1, “4-(PYRAZINE-2-YL) -PYRROLIDINE -2-CARBOXYLIC ACID COMPOUNDS AND DERIVATIVES THEREOF AS HEPATITIS C VIRUS INHIBITORS” (priority 2004, published 2009)
# Columns and labels:
# [1] = target: T1, HCV RNA Polymerase, recombinant full-length NS5B, genotype 1b (Hepatitis C virus genotype 1b, UniProt Q9WMX2); assay: In vitro HCV RNA-dependent RNA polymerase inhibition assay, genotype 1b full-length enzyme; format: biochemical, HCV genotype 1b; conditions: genotype 1b full-length NS5B enzyme
# T1 construct: Recombinant full-length NS5B; made in house
# T1 sequence (Q9WMX2 2420-3010): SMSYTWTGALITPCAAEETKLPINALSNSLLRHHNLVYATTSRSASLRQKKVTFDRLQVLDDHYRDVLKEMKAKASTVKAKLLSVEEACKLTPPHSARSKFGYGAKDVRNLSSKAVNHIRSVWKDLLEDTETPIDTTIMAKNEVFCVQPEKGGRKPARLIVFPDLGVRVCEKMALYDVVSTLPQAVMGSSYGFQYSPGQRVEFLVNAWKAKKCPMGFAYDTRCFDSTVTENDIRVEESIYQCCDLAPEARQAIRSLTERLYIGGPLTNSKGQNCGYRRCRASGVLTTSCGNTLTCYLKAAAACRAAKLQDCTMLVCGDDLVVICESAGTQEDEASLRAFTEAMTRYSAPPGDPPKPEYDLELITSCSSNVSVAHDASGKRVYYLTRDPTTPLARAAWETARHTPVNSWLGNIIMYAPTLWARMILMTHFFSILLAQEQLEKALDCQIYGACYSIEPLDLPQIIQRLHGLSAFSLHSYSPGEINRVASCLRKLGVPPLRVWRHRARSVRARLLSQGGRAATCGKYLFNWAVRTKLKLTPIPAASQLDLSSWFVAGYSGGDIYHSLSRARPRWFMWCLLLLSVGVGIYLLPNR
# Protocol: Incorporation of [^33P]-GMP into RNA was followed by absorption of the biotin labelled RNA polymer by streptavidin containing SPA beads. A synthetic template consisting of biotinylated 13mer-oligoG hybridised to polyrC was used as a homopolymer substrate.
# b) Genotype 1b Full-Length Enzyme
# Reaction Conditions were 0.5 μM [^33P]-GTP (20 Ci/mMol), 1 mM Dithiothreitol, 20 mM MgCl2, 5 mM MnCl2, 20 mM Tris-HCl, pH7.5, 1.6 μg/mL polyC/0.256 μM biotinylated oligoG13, 10% glycerol, 0.01% NP-40, 0.2 u/μL RNasin and 50 mM NaCl.
# HCV RNA Polymerase (Recombinant full-length NS5B (Lohmann et al, J. Virol. 71 (11), 1997, 8416. ‘Biochemical properties of hepatitis C virus NS5B RNA-dependent RNA polymerase and identification of amino acid sequence motifs essential for enzymatic activity’) expressed in baculovirus and purified to homogeneity) was added to 4 nM final concentration.
# 5× concentrated assay buffer mix was prepared using 1M MnCl2 (0.25 mL), glycerol (2.5 mL), 10% NP-40 (0.025 mL) and Water (7.225 mL), Total 10 mL.
# 2× concentrated enzyme buffer contained 1M-Tris-HCl, pH7.5 (0.4 mL), 5M NaCl (0.2 mL), 1M-MgCl2 (0.4 mL), glycerol (1 mL), 10% NP-40 (10 μL), 1M DTT (20 μL) and water (7.97 mL), Total 10 mL.
# Substrate Mix was prepared using 5× Concentrated assay Buffer mix (4 μL), [^33P]-GTP (10 μCi/μL, 0.02 μL), 25 μM GTP (0.4 μL), 40 u/μL RNasin (0.1 μL), 20 μg/mL polyrC/biotinylated-oligoG (1.6 μL), and Water (3.94 μL), Total 10 μL.
# Enzyme Mix was prepared by adding 1 mg/ml full-length NS5B polymerase (1.5 μL) to 2.81 mL 2×-concentrated enzyme buffer.
# The Assay was set up using compound (1 μL), Substrate Mix (10 μL), and Enzyme Mix (added last to start reaction) (10 μL), Total 21 μL.
# The reaction was performed in a U-bottomed, white, 96-well plate. The reaction was mixed on a plate-shaker, after addition of the Enzyme, and incubated for 1 h at 22° C. After this time, the reaction was stopped by addition of 40 μL 1.875 mg/ml streptavidin SPA beads in 0.1 M EDTA. The beads were incubated with the reaction mixture for 1 h at 22° C. after which 120 μL 0.1 M EDTA in PBS was added. The plate was sealed, mixed centrifuged and incorporated radioactivity determined by counting in a Trilux (Wallac) or Topcount (Packard) Scintillation Counter.
# After subtraction of background levels without enzyme, any reduction in the amount of radioactivity incorporated in the presence of a compound, compared to that in the absence, was taken as a measure of the level of inhibition. Ten concentrations of compounds were tested in three- or fivefold dilutions. From the counts, percentage of inhibition at highest concentration tested or IC50s for the compounds were calculated using GraFit 3, GraFit 4 or GraFit 5 (Erithacus Software Ltd.) software packages or a data evaluation macro for Excel based on XLFit Software (IDBS).
# [2] = tested on: Huh-7 HCV replicon cells (genotype 1a); assay: Replicon ELISA cell based assay, genotype 1a; design: species or system HCV genotype 1a; conditions: Hepatitis C virus, Huh-7 genotype 1a replicon, 72 hours
# Protocol: 100 μL of medium containing 10% FCS were added to each well of clear, flat-bottomed 96 well microplates, excepting wells in the top row. Test compound was diluted in assay medium to twice the final required starting concentration from a 40 mM stock solution in DMSO. 200 μL of the starting dilution were introduced into two wells each in the top row and doubling dilutions made down the plate by the sequential transfer of 100 μL aliquots with thorough mixing in the wells; the final 100 μL were discarded. The two bottom rows were not used for compound dilutions. Huh-7 HCV replicon cell monolayers nearing confluency were stripped from growth flasks with versene-trypsin solution and the cells were resuspended in assay medium at either 2×10^5 cells/mL (sub-line 5-15; genotype 1b; Lohmann, V., Komer, F., Koch, J-O., Herian, U., Thielmann, L. And Bartenschlager, R., 1999, Science, 285, pp 110-113) or at 3×10^5 cells/mL (genotype 1a; Gu, B., Gates, A. T., Isken, O., Behrens, S. E. and Sarisky, R. T., J. Virol., 2003, 77, 5352-5359). 100 μL of cell suspension were added to all wells and the plates incubated at 37° C. for 72 hours in a 5% CO2 atmosphere.
# Following incubation, the assay medium was aspirated from the plates. The cell sheets were washed by gentle immersion in phosphate buffered saline (PBS), which was then aspirated off, and fixed with acetone:methanol (1:1) for 5 minutes. Following a further wash with PBS, 100 μL of ELISA diluent (PBS+0.05% v/v Tween 20+2% w/v skimmed milk powder) were added to all wells and the plates incubated at 37° C. for 30 minutes on an orbital platform. The diluent was removed and each well then received 50 μL of a 1/200 dilution of anti-HCV specific, murine, monoclonal antibody (either Virostat #1872 or #1877), except for wells in one of the compound-free control rows which received diluent alone to act as negative controls. The plates were incubated at 37° C. for 2 hours and washed 3 times with PBS/0.05% Tween 20, then 50 μL of horseradish peroxidase conjugated, anti-mouse, rabbit polyclonal serum (Dako #P0260), diluted 1/1000, were added to all wells. The plates were incubated for a further hour, the antibody removed and the cell sheets washed 5 times with PBS/Tween and blotted dry. The assay was developed by the addition of 50 μL of ortho-phenylenediamine/peroxidase substrate in urea/citrate buffer (SigmaFast, Sigma #P-9187) to each well, and colour allowed to develop for up to 15 minutes. The reaction was stopped by the addition of 25 μL per well of 2 M sulphuric acid and the plates were read at 490 nm on a Fluostar Optima spectrophotometer.
# The substrate solution was removed and the plates were washed in tap water, blotted dry and the cells stained with 5% carbol fuchsin in water for 30 minutes. The stain was discarded and the cell sheets washed, dried and examined microscopically to assess cytotoxicity.
# The absorbance values from all compound-free wells that had received both primary and secondary antibodies were averaged to obtain a positive control value. The mean absorbance value from the compound-free wells that had not received the primary antibody was used to provide the negative (background) control value. The readings from the duplicate wells at each compound concentration were averaged and, after the subtraction of the mean background from all values, were expressed as a percentage of the positive control signal. The quantifiable and specific reduction of expressed protein detected by the ELISA in the presence of a drug can be used as a measure of replicon inhibition. GraFit software was used to plot the curve of percentage inhibition against compound concentration and derive the 50% inhibitory concentration (IC50) for the compound.
smiles,measurement,setting,value
"COc1cc(C(=O)N2[C@@H](c3nccs3)[C@@H](c3cnccn3)C[C@@]2(Cc2ccsn2)C(=O)O)ccc1C(C)(C)C (racemic) [Example 7, rel-(2R,4S,5R)-1-(3-Methoxy-4-tert-butylbenzoyl)-4-(pyrazin-2-yl)-2-(1,2-thiazol-3-ylmethyl)-5-(1,3-thiazol-2-yl)pyrrolidine-2-carboxylic acid]",IC50,[1],< 0.1 µM
same,IC50,[2],< 10 µM
"COc1cc(C(=O)N2[C@@H](c3ncc(C)s3)[C@@H](c3cnccn3)C[C@@]2(Cn2cccn2)C(=O)O)ccc1C(C)(C)C (racemic) [Example 9, rel-(2R,4S,5R)-1-(3-Methoxy-4-tert-butylbenzoyl)-5-(5-methyl-1,3-thiazol-2-yl)-4-(pyrazin-2-yl)-2-(1H-pyrazol-1-ylmethyl)pyrrolidine-2-carboxylic acid]",IC50,[1],< 0.1 µM
same,IC50,[2],< 10 µM
"COc1cc(C(=O)N2[C@@H](c3nccs3)[C@@H](c3cnccn3)C[C@@]2(Cn2cccn2)C(=O)O)ccc1C(C)(C)C (racemic) [Example 11, rel-(2R,4S,5R)-1-(3-Methoxy-4-tert-butylbenzoyl)-4-(pyrazin-2-yl)-2-(1H-pyrazol-1-ylmethyl)-5-(1,3-thiazol-2-yl)pyrrolidine-2-carboxylic acid]",IC50,[1],< 0.1 µM
same,IC50,[2],< 10 µM
"COc1cc(C(=O)N2[C@@H](c3ncc(C)s3)[C@@H](c3cnccn3)C[C@@]2(Cc2nccs2)C(=O)O)ccc1C(C)(C)C (racemic) [Example 13, rel-(2R,4S,5R)-1-(3-Methoxy-4-tert-butylbenzoyl)-5-(5-methyl-1,3-thiazol-2-yl)-4-(pyrazin-2-yl)-2-(1,3-thiazol-2-ylmethyl)pyrrolidine-2-carboxylic acid]",IC50,[1],< 0.1 µM
same,IC50,[2],< 10 µM
"COc1cc(C(=O)N2[C@@H](c3ncc(C)s3)[C@@H](c3cnccn3)C[C@@]2(Cc2cscn2)C(=O)O)ccc1C(C)(C)C (racemic) [Example 15, rel-(2R,4S,5R)-1-(3-Methoxy-4-tert-butylbenzoyl)-5-(5-methyl-1,3-thiazol-2-yl)-4-(pyrazin-2-yl)-2-(1,3-thiazol-4-ylmethyl)pyrrolidine-2-carboxylic acid]",IC50,[1],< 0.1 µM
same,IC50,[2],< 10 µM
"COc1cc(C(=O)N2[C@@H](c3nccs3)[C@@H](c3cnccn3)C[C@@]2(CC(C)C)C(=O)O)ccc1C(C)(C)C (single isomer, unassigned; enantiomer a) [Compound B, reference compound]",IC50,[1],> 0.5 µM
same,IC50,[2],10 to 100 µM
"COc1cc(C(=O)N2[C@@H](c3nccs3)[C@@H](c3cnccn3)C[C@@]2(Cc2cscn2)C(=O)O)ccc1C(C)(C)C (single isomer, unassigned; enantiomer a) [Example 2]",IC50,[1],< 0.1 µM
same,IC50,[2],< 10 µM
"COc1cc(C(=O)N2[C@@H](c3nccs3)[C@@H](c3cnccn3)C[C@@]2(Cc2nccs2)C(=O)O)ccc1C(C)(C)C (single isomer, unassigned; enantiomer a) [Example 4]",IC50,[1],< 0.1 µM
same,IC50,[2],< 10 µM
"COc1cc(C(=O)N2[C@@H](c3ncc(C)s3)[C@@H](c3cnccn3)C[C@@]2(Cc2ccsn2)C(=O)O)ccc1C(C)(C)C (single isomer, unassigned; enantiomer a) [Example 6]",IC50,[1],< 0.1 µM
same,IC50,[2],< 10 µM
"COc1cc(C(=O)N2[C@@H](c3nccs3)[C@@H](c3cnccn3)C[C@@]2(Cc2ccsn2)C(=O)O)ccc1C(C)(C)C (single isomer, unassigned; enantiomer a) [Example 8]",IC50,[1],< 0.1 µM
same,IC50,[2],< 10 µM
"COc1cc(C(=O)N2[C@@H](c3ncc(C)s3)[C@@H](c3cnccn3)C[C@@]2(Cn2cccn2)C(=O)O)ccc1C(C)(C)C (single isomer, unassigned; enantiomer a) [Example 10]",IC50,[1],< 0.1 µM
same,IC50,[2],< 10 µM
"COc1cc(C(=O)N2[C@@H](c3nccs3)[C@@H](c3cnccn3)C[C@@]2(Cn2cccn2)C(=O)O)ccc1C(C)(C)C (single isomer, unassigned; enantiomer a) [Example 12]",IC50,[1],< 0.1 µM
same,IC50,[2],< 10 µM
"COc1cc(C(=O)N2[C@@H](c3ncc(C)s3)[C@@H](c3cnccn3)C[C@@]2(Cc2nccs2)C(=O)O)ccc1C(C)(C)C (single isomer, unassigned; enantiomer a) [Example 14]",IC50,[1],< 0.1 µM
same,IC50,[2],< 10 µM
"COc1cc(C(=O)N2[C@@H](c3ncc(C)s3)[C@@H](c3cnccn3)C[C@@]2(Cc2cscn2)C(=O)O)ccc1C(C)(C)C (single isomer, unassigned; enantiomer a) [Example 16]",IC50,[1],< 0.1 µM
same,IC50,[2],< 10 µM
